Experimental data taken from patent US12576059B2, “Methods and compositions for treatment of inflammatory disease” (priority 2021, dated 2026).
Entries after “also recorded” stand apart in the source; their conditions may differ.

Columns and labels:
[1] = system: LPS induced acute lung inflammation; assay: Example 1: LPS induced acute lung inflammation, interalveolar septa distance; type: in vivo, mice
From the text: LPS administration is known to promote inflammation through various mechanisms including secretion of pro-inflammatory cytokines, eicosanoids and induction of ROS. This example employed LPS to ascertain the extent of inflammation arising from ROS induced oxidation of H-AA versus D-AA in the lungs of mice. Specifically, four groups of mice were used. The first group was control mice treated with H-LA control mice. The second group of mice received a 6-week course of D-LA. It is understood that in vivo conversion of a portion of both H-LA and D-LA occurs to provide for AA and 13,13-D2-AA respectively. The third group of mice received a 6-week course of H-AA. The fourth group of mice received a 6-week course of D-AA. All groups then received a single intranasal administration of LPS to induce acute lung inflammation. The degree of the inflammatory response was based on the interalveolar septa distance where the larger the distance of the septa, the greater the degree of inflammation. The animals were sacrificed and the interalveolar septa distance was measured. Table 1 provides an average degree of spatial distance for the interalveolar septa for the results of all groups.

[2] = system: LPS induced acute lung inflammation; assay: Example 2: LPS induced inflammation, H-AA versus D-AA, male and female mice; type: in vivo; details: for Interalveolar space / Interalveolar surface area: 6-week course, then single intranasal LPS; for inflammation in the lungs (in words): male and female mice, after LPS
Method: LPS administration was conducted as per Example 1 above except that four groups of mice were used. The first two groups (1 and 2) were control mice (male and female). The next two groups (3 and 4) of mice received a 6-week course of H-AA (male and female). Finally, the last two groups (5 and 6) of mice received a 6-week course of D6-AA (second group). Groups 3, 4, 5 and 6 then received a single intranasal administration of LPS to induce acute lung inflammation. The degree of the inflammatory response was determined per Example 1. Next, the height and distance of the interalveolar septa was determined to provide for the surface area of the inflammation.

[3] = system: LPS induced acute lung inflammation; assay: Example 1a: mouse model of lung inflammation (FIGS. 3-6, Table 4); type: in vivo, mice; details: for Alveolar lumen area (25%; 75%) / Partition thickness Me (25%; 75%): + LPS, median; for protective / therapeutic effect compared to other deuterated PUFAs: preliminary data (not shown)
Method: FIGS. 3-6 Groups of female (f) and male (m) mice received a 6-week course of dietary (H) AA or a 6-week course of deuterated arachidonic acid (D6-ARA, 15 mg/day) followed by single intranasal administration of LPS.
LPS treatment promotes inflammation through various mechanisms including secretion of pro-inflammatory cytokines, eicosanoids and induction of ROS. Following induction by the intranasal administration of LPS, an acute lung inflammation quickly follows. […] Such a pronounced inflammatory infiltration of the interalveolar septa contributed to their destruction and more frequent formation of emphysema foci in this group. […] (See FIGS. 3-6.)
The degree of alveolar lumen area changes in both groups of animals depended on gender. […]

[4] = system: LPS-induced acute lung injury; assay: Example 5: response to intranasal LPS in mice fed AA diets (ALI model); type: in vivo, BALB/c and C57BL/6 mice; details: for LPS-induced perivascular edema as measured by alveolar wall thickness: 6 weeks diet, versus H-AA
Method: Mouse diet was from Research Diets (New Brunswick, NJ) based on fat-free AIN-93G. Fat was added at 11.3% by weight total fat and 0.25% either normal H-AA or D-AA respectively (Table 5).
Male and Female BALB/c and C57BL/6 mice were provided with standard environmental conditions i.e., 22±1° C., 55±5% humidity and 12 h light/dark cycle with free food and water access. At the age of six weeks, animals were split into 8 groups (n=160 total, 20 of each gender) and were continuously fed ad libitum on the diet containing either H-AA or D-AA for 2, 4, 6 or 8 weeks at the daily rate of ca. 5 g of diet per mouse for the duration of the study. The other two groups of animals (n=40, 20 of each gender) received neither PUFA-enriched diets nor LPS served as controls. The body weight and food intake were measured once a week. After completing the appropriate diet course, half of the mice in each group (10 females and 10 males) (i) underwent the procedure of bronchoalveolar lavage (BAL) to accomplish cytological smears, (ii) were subjected to tissue harvesting and collection of colon contents (after humane euthanasia with lethal dose of sodium thiopental, 100 mg/kg intravenously). On the ninth week of this diet course, the other half of the group was administered 1 mg/kg of intranasal (IN) LPS from Escherichia coli O111:B4 (Sigma Aldrich) 24 hours prior to BAL and subsequent euthanasia. 40 D-AA fed animals (20 males, 20 females) were switched to the H-AA diet for washout experiments.
Cell differential counts were performed on smear slides from resuspended cell pellets of BAL, using commercially available May-Grünwald-Giemsa staining kits. All slides were evaluated in a light microscope (Optec BK5000) at ×200 magnification. These cell counts such as lymphocytes, neutrophils, plasmacytes and macrophages were obtained from 10 fields of each slide.
Lung, stomach and colon samples were fixed with 4% formaldehyde (freshly prepared from paraformaldehyde), paraffin embedded and cut into 2-4 μm sections. For routine histology, all fixed tissue sections were stained with hematoxylin-eosin (H&E). All slides were evaluated at 10 fields each using a Genetic Pro Bino light microscope (A) and photographed with a digital camera (Delta Optical). Stomach and colon tissue sections were analyzed for signs of active and chronic inflammation, formation of lymph follicles, and hyperplasia of epithelial cells. The severity of lung injury was scored according to lung pathological changes, including interalveolar and perivascular hemorrhages, peri-vascular and peribronchial infiltration, perivascular edema, thickness of alveolar wall, alveolar space value, and emphysematous transformations. Lung tissue samples were additionally stained with commercially available Martius Scarlet Blue (MSB) stain kit (Avantik, USA) for fibrin visualization. The presence of homogeneous fibrin masses of yellow, pink or red color in the lung blood vessels were interpreted as thrombotic masses.
We challenged mice fed AA-diets for 6 weeks using LPS treatment. […] Perivascular edema, signs of thrombosis, alveolar wall thickening, irregular distribution of air spaces, and focal areas of alveolar hemorrhage were also observed. We preferred intranasal administration to the more extreme intratracheal route that induces IL-1β which in turn amplifies inflammation making it difficult to distinguish between the early and late consequences of the LPS challenge. Indeed, 24 hours after intranasal administration of LPS at a dose of 1 mg/kg, there was no significant increase in the IL-1B content in BAL fluid or colon homogenates compared to animals not treated with LPS regardless of type or duration of the diets. Intranasal LPS 24 hours post administration increased neutrophils in BAL fluid in all treated groups regardless of gender or form of AA diets.

[5] = 6 or 8 weeks diet, compared to H-AA

## [2H]C([2H])(/C=C\CCCCC)/C=C\C([2H])([2H])/C=C\C([2H])([2H])/C=C\CCCC(=O)O [D-AA, 7,7,10,10,13,13-D6-arachidonic acid]
[1]; 6-week course, then single intranasal LPS
  Interalveolar space (average spatial distance for the interalveolar septa): 4.1 μm
[1]; D-LA relative to H-LA, comparator for D-AA not stated
  reduction in the spatial distance for the interalveolar septa: ~60%
[2]; female mice
  Interalveolar space: ~3.5 μm
  Interalveolar surface area: ~90 μm^2
[2]
  inflammation in the lungs (in words): statistically significant reduction in inflammation
[2]; listed as D-6 AA
  inflammation in the lungs (in words): less inflammation in the lungs
[2]; male mice
  Interalveolar space: ~5.0 μm
  Interalveolar surface area: ~190 μm^2
[3]; 6-week course, 15 mg/day, then single intranasal LPS
  alveolar lumen area and thickness versus controls: consistent with controls
[3]; females
  Alveolar lumen area (25%; 75%): 57.4 μm^2
  Partition thickness Me (25%; 75%): 3.6 µm
[3]; males
  Alveolar lumen area (25%; 75%): 112.1 μm^2
  Partition thickness Me (25%; 75%): 5.55 µm
[3]
  protective / therapeutic effect compared to other deuterated PUFAs: best protective effect
[3]; listed as D6-AA
  protective / therapeutic effect compared to other deuterated PUFAs: better therapeutic effect
[4]; 6-week diet, then single intranasal LPS
  LPS-induced interalveolar septa / wall thickening (in words): greater protective action
[4]; [5]
  alveolar spaces and thickness of interalveolar walls: improved
  endotoxin-induced peribronchial infiltration: significantly decreased
[4]; dietary consumption prior to LPS exposure
  LPS-induced lung tissue damage, inflammation and emphysema (in words): substantially mitigated; also recorded: substantially reduced
[4]; female mice
  LPS-induced perivascular edema as measured by alveolar wall thickness: almost negligible
[4]; male mice
  LPS-induced perivascular edema as measured by alveolar wall thickness: significantly milder effect
[4]; regardless of gender and LPS treatment
  inflammatory cell types in BAL, H-AA versus D-AA: No statistically significant differences
